Assay results reported in ChEMBL document CHEMBL1126886, “Synthesis of 5-methyl-5-deaza nonclassical antifolates as inhibitors of dihydrofolate reductases and as potential antipneumocystis, antitoxoplasma, and antitumor agents” (J Med Chem, 1993).

Key:
Dihydrofolate reductase [1] = target: T1, Dihydrofolate reductase (Rattus norvegicus, UniProt Q920D2)
T1 sequence (Q920D2 whole entry): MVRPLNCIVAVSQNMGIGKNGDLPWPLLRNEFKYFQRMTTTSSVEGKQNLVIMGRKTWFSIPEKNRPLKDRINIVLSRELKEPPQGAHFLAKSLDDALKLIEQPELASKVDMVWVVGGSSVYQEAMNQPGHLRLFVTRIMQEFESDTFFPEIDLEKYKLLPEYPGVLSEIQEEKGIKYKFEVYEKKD
Description: Inhibition of rat liver dihydrofolate reductase

Dihydrofolate reductase [2] = target: T2, Dihydrofolate reductase (Pneumocystis carinii, UniProt P16184)
T2 sequence (P16184 whole entry): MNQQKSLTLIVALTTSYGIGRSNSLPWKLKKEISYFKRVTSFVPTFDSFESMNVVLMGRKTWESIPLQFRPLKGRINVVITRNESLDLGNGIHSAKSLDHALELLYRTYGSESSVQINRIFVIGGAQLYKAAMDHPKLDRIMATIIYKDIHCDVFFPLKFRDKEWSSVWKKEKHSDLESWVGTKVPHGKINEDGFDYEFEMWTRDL
Description: Inhibition of Pneumocystis carinii dihydrofolate reductase

[3] = Inhibitory concentration required to decrease cell viability in cell growth culture against melanoma SK5 MeI; assay type: functional; conditions: Homo sapiens
MCF7S = experiment: Inhibitory concentration required to decrease cell viability in cell growth culture against breast carcinoma cells MCF-7; assay type: functional, cell-based; conditions: Homo sapiens
HCT-116 = experiment: Inhibitory concentration required to decrease cell viability in cell growth culture against colon carcinoma cells HCT116; assay type: functional, cell-based; conditions: Homo sapiens
ACHN = experiment: Inhibitory concentration required to decrease cell viability in cell growth culture against kidney cells ACHN; assay type: functional, cell-based; conditions: Homo sapiens
[4] = target: T3, Bifunctional dihydrofolate reductase-thymidylate synthase (Toxoplasma gondii, UniProt Q07422); experiment: Inhibition of Toxoplasma gondii dihydrofolate reductase
T3 sequence (Q07422 whole entry): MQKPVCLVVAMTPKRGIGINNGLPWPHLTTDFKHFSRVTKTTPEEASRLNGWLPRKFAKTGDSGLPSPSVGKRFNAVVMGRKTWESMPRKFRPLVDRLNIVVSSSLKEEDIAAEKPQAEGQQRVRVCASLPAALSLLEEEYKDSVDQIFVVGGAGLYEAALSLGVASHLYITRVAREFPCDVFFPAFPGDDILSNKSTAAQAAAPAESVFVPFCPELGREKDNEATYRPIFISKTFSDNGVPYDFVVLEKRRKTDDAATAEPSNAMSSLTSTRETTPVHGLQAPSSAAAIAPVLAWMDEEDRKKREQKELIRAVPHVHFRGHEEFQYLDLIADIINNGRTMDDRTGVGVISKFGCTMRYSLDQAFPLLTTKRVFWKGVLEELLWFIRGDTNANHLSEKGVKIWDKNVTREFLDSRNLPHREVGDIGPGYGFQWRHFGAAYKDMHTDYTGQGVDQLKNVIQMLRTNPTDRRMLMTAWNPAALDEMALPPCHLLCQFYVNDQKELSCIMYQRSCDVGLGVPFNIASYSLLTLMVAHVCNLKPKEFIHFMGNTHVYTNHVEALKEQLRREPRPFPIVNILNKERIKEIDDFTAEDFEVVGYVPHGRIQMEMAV

Toxoplasma gondii [5] = experiment: Inhibitory concentration of Toxoplasma gondii cells in human embryonic lung cells with minimum essential medium; inactive; assay type: functional, organism-based
CCRF-CEM = experiment: Inhibitory concentration required to decrease cell viability in cell growth culture against leukemia cells CCRF-CEM; assay type: functional, cell-based; conditions: Homo sapiens
Dihydrofolate reductase [6] = target: T1, Dihydrofolate reductase; experiment: Inhibitory concentration against rat liver dihydrofolate reductases
Pneumocystis carinii [7] = experiment: Inhibitory concentration against Pneumocystis carinii cells in human embryonic lung fibrobalstic cell culture with MEM at 1 ug/mL; assay type: functional, organism-based
Dihydrofolate reductase [8] = target: T4, Dihydrofolate reductase (Lactobacillus casei, UniProt P00381); experiment: Inhibitory concentration against Lactobacillus casei dihydrofolate reductase; set-up: species or system Lacticaseibacillus casei
Toxoplasma gondii [9] = experiment: Inhibitory concentration of Toxoplasma gondii cells in human embryonic lung cells with minimum essential medium; assay type: functional, organism-based
Pneumocystis carinii [10] = experiment: (§1) Inhibitory concentration against Pneumocystis carinii cells in human embryonic lung fibrobalstic cell culture with MEM at 10 ug/mL; assay type: functional, organism-based
Pneumocystis carinii [11] = experiment: as §1
Dihydrofolate reductase [12] = target: T4, Dihydrofolate reductase; experiment: (§2) Inhibitory concentration against Lactobacillus casei; set-up: species or system Lacticaseibacillus casei
Pneumocystis carinii [13] = experiment: microbe, parasite or virus in culture
Description: Inhibitory concentration against Pneumocystis carinii cells in human embryonic lung fibrobalstic cell culture with MEM at 250 ug/mL

Pneumocystis carinii [14] = experiment: Inhibitory concentration against Pneumocystis carinii cells in human embryonic lung fibrobalstic cell culture with MEM at 50 ug/mL
Lacticaseibacillus casei = experiment: as §2; assay type: functional, organism-based

T4 sequence (P00381 whole entry): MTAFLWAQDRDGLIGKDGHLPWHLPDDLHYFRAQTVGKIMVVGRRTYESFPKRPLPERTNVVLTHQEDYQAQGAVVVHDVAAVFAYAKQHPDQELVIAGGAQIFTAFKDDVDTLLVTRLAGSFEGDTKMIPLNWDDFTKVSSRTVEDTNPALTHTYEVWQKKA

Structure (SMILES) | IC50 (Dihydrofolate reductase [1]) [nM] | IC50 (Dihydrofolate reductase [2]) [nM] | IC50 [3] [nM] | IC50 (MCF7S) [nM] | IC50 (HCT-116) [nM] | IC50 (ACHN) [nM] | IC50 [4] [nM] | IC50 (CCRF-CEM) [nM] | other results
COc1cc(N(C=O)CC2=CNc3nc(N)nc(N)c3C2C)cc(OC)c1OC (stereo unspecified) | > 2600 | > 2600 |  |  |  |  |  |  | 
COc1cc(N(C=O)Cc2cnc3nc(N)nc(N)c3c2C)cc(OC)c1OC | 110 | 550 | > 112000 | > 100000 | > 112000 | > 112000 | 13 | 610 | IC50 (Toxoplasma gondii [5]): Not Active
Cc1c(CN(C=O)c2ccc(Cl)c(Cl)c2)cnc2nc(N)nc(N)c12 |  | 510 | 25100 | 106000 | 16000 | 91400 | 83 | 210 | IC50 (Dihydrofolate reductase [6]): 140 nM
COc1cc(N(C=O)CC2CNc3nc(N)nc(N)c3C2C)cc(OC)c1OC (stereo unspecified) | > 1200 | > 1200 |  |  |  |  |  |  | 
COc1cc(NCc2cnc3nc(N)nc(N)c3c2C)cc(OC)c1OC.O=C(O)[C@H]1O[C@H](O)[C@H](O)[C@@H](O)[C@@H]1O |  |  |  |  |  |  |  |  | % inhibition (Pneumocystis carinii [7]): 2%
COc1cc(NCc2cnc3nc(N)nc(N)c3c2C)cc(OC)c1OC | 2.1 |  | > 100000 | > 100000 | 71700 | > 100000 |  | 130 | IC50 (Dihydrofolate reductase [8]): 22 nM; % inhibition (Pneumocystis carinii [7]): 56%; IC50 (Toxoplasma gondii [9]): 23000 nM; % inhibition (Pneumocystis carinii [10]): 77%
COc1cc(NCc2cnc3nc(N)nc(N)c3c2C)cc(OC)c1OC.O=C(O)[C@H]1OC(O)[C@H](O)[C@@H](O)[C@@H]1O |  |  |  |  |  |  |  |  | % inhibition (Pneumocystis carinii [11]): 57%
Cc1c(CN(C=O)c2cc(Cl)c(Cl)c(Cl)c2)cnc2nc(N)nc(N)c12 | 250 | 520 |  |  |  |  | 94 | 30 | 
Cc1c(CNc2cc(Cl)c(Cl)c(Cl)c2)cnc2nc(N)nc(N)c12 | 33 | 63 |  | > 100000 |  |  | 12 | 200 | 
COc1cc(NCC2CNc3nc(N)nc(N)c3C2C)cc(OC)c1OC (stereo unspecified) | 3700 | > 3700 |  |  |  |  |  |  | 
COc1cc(N(C)Cc2cnc3nc(N)nc(N)c3c2C)cc(OC)c1OC | 7.6 |  | > 100000 | > 100000 | 37900 | > 100000 |  | 20 | IC50 (Dihydrofolate reductase [8]): 200 nM; % inhibition (Pneumocystis carinii [7]): 65%; IC50 (Toxoplasma gondii [9]): 4700 nM; % inhibition (Pneumocystis carinii [10]): 74%
Cc1c(CNc2ccc(Cl)c(Cl)c2)cnc2nc(N)nc(N)c12 | 53 | 320 | 7730 | 94500 | 28600 | 22900 | 28 | 100 | IC50 (Dihydrofolate reductase [12]): 860 nM
Cc1c(CN(C)c2cc(Cl)c(Cl)c(Cl)c2)cnc2nc(N)nc(N)c12 | 36.3 | 105 |  | 18200 |  |  | 38.1 | 200 | IC50 (Dihydrofolate reductase [12]): 36 nM
Cc1c(CN(C)c2ccc(Cl)c(Cl)c2)cnc2nc(N)nc(N)c12 | 42 | 100 | 21200 | 9600 | 5300 | 70200 | 27 | 10 | IC50 (Dihydrofolate reductase [12]): 960 nM
COc1cc(Cc2cnc(N)nc2N)cc(OC)c1OC.Cc1cc(NS(=O)(=O)c2ccc(N)cc2)no1 [CO-TRIMOXAZOLE] |  |  |  |  |  |  |  |  | inhibition at 250 µg/mL (Pneumocystis carinii [13]): 84%
COc1cc(Cc2cnc(N)nc2N)cc(OC)c1OC [TRIMETHOPRIM] |  |  |  |  |  |  |  |  | inhibition at 50 µg/mL (Pneumocystis carinii [14]): 84%
COc1cc(NCc2ccc3nc(N)nc(N)c3c2C)cc(OC)c1OC [TRIMETREXATE] |  |  |  |  |  |  |  |  | IC50 (Lacticaseibacillus casei): 27 nM
